# Source: PubChem BioAssay AID1249 (Columbia University Molecular Screening Center, 2008)
# The source made the active and inactive calls. How the calls were made is not given here.
# Test: cellular cytoskeleton assembly phenotype modulators – imaging, high-content imaging, retest and dose response, confirmation (AID 1249);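 further: compound exposure lasted 24 h before fixation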;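 on inhibition: plate controls were untreated cells for no effect and reference compound treated cells for full effect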
# Conditions: cell-based imaging, cytoskeleton assembly phenotype, high content; at 2 µM; stronger effect = higher value
row,Compound,inhibition
1,CCN1C(=O)CSC1=NC12CC3CC(CC(C3)C1)C2,-5.5% (inactive)
2,COc1ccc(NC(=O)/C(Cl)=C(/Cl)S(=O)(=O)Cc2ccc(C)cc2)cn1,5.2% (inactive)
3,CSc1nc2sc(-c3ccccc3)cc2c(=O)n1N,-0.9% (inactive)
4,O=S(=O)(c1cccs1)N1CCN(CC(O)COc2cccc(Br)c2)CC1 (centres undefined),5.3% (inactive)
5,CCN(CC)C(=O)CN(c1ccc(Cl)cc1)S(=O)(=O)c1ccccc1,0.4% (inactive)
6,COc1cc(NC(=O)CN2C(=O)NC(C)(CC(C)C)C2=O)cc(OC)c1 (centres undefined),1.2% (inactive)
7,Cc1ccc2nc(CCc3nc4ccc(C)cc4o3)oc2c1,5.4% (inactive)
8,COc1ccc(Nc2nc(N3CCCC3)nc3ccccc23)c(OC)c1,-12.3% (inactive)
9,CC(NC(=O)COC(=O)Cc1ccsc1)C1CC2CCC1C2 (centres undefined),-7.6% (inactive)
10,Cn1c(NC(=O)C2c3ccccc3Oc3ccccc32)cc(=O)n(C)c1=O,-0.3% (inactive)
11,CCOC(=O)c1ccc(CNC(=O)CCC(=O)O)cc1,-7% (inactive)
12,COc1ccc(-c2cc(=O)[nH]c(NCc3ccccc3)n2)cc1,-1.7% (inactive)
13,COCCNC(=O)C(c1cccs1)N(Cc1cccs1)C(=O)Cn1nnc2ccccc21 (centres undefined),-4.6% (inactive)
14,CC(C)Sc1nc2c(c(=O)n1-c1ccc(F)cc1)SCC2,-6.3% (inactive)
15,Cn1cc([N+](=O)[O-])c(C(=O)Nc2ccc3c(c2)OCCO3)n1,-7.4% (inactive)
16,COc1ccccc1/C=N/NC(=O)C(NC(=O)c1ccccc1)=C(C)C,5.8% (inactive)
17,CCOc1ccc(C2/C(=C(\O)c3c(C)[nH]c(C(=O)OC)c3C)C(=O)C(=O)N2CCN(C)C)cc1 (centres undefined),-9% (inactive)
18,CC1Oc2ccccc2C=C1/C=C1/SC(N2CCOCC2)=NC1=O (centres undefined),-1.2% (inactive)
19,N=c1nc(N)nc2n1NC(c1ccc(F)cc1)=CS2,-1.7% (inactive)

row,Compound,inhibition
1,Cc1ccc(S(=O)(=O)Cn2nnnc2C(C(C)C)N2CCN(c3nc4ccccc4s3)CC2)cc1 (centres undefined),4.2% (inactive)
2,CC(CCc1ccccc1)NC(=O)c1ccc(Br)o1 (centres undefined),-0.1% (inactive)
3,O=C(CC(c1ccccc1)c1ccccc1)NCC1CCCO1 (centres undefined),-0.2% (inactive)
4,CCOC(=O)Cc1csc(SCC(=O)/C(C#N)=C(\C)N)n1,-9.5% (inactive)
5,Cc1ccc(OCc2ccoc2C(=O)O)cc1C,-8.8% (inactive)
6,CCOC(=O)c1ccc(-n2c(=S)sc3c(=O)[nH]c(C)nc32)cc1,3.6% (inactive)
7,COc1ccc(OC)c(NS(=O)(=O)c2ccc(N3CCCC3=O)cc2)c1,-3.6% (inactive)
8,CCn1c(=O)c2c(n3cnnc13)-c1ccccc1CC21CCCCC1,5.6% (inactive)
9,COc1ccc(OC)c(N(CC(=O)Nc2ccccc2)S(C)(=O)=O)c1,16.3% (inactive)
10,COc1ccc(CCNc2oc(COc3ccccc3F)nc2C#N)cc1,0% (inactive)
11,CCCc1nnc(SCC(=O)O)n1/N=C/c1ccc2c(c1)OCO2,-4.9% (inactive)
12,O=C1c2oc3ccccc3c(=O)c2C(c2cccc(F)c2)N1CCCO (centres undefined),6.3% (inactive)
13,CC(C)n1c(C(=O)OCC(=O)NCc2ccc3c(c2)OCO3)cc2sccc21,14.1% (inactive)
14,Cc1ccc(Cl)cc1N1CCN(C(c2cccnc2)c2nnnn2C2CCCCC2)CC1 (centres undefined),12.1% (inactive)
15,O=c1ccc(Oc2nc(N3CCOCC3)nc(N3CCOCC3)n2)nn1-c1ccccc1,9.9% (inactive)
16,O=[N+]([O-])c1ccc(/C=N/n2c(COc3ccccc3)n[nH]c2=S)cc1,-4.5% (inactive)
17,CCn1c(SCC(=O)Nc2ccc(C(=O)OC)cc2)nnc1-c1cccs1,0.4% (inactive)
18,CCn1c(SCC(=O)Nc2cc(C)on2)nnc1-c1ccccc1,0.6% (inactive)
19,CCC(=O)Nc1cccc(C(=O)/C=C/c2cc(Br)ccc2OC)c1,0% (inactive)

# Same assay, conditions: cell-based imaging, cytoskeleton assembly phenotype, high content; cell count; at 10 µM; stronger effect = lower value
row,Compound,cell count [%]
1,CCOc1ccc(C2=Nn3c(nnc3-c3ccccc3OC)SC2)cc1,36.3
